Test results as given in ChEMBL document CHEMBL1201862, “PubChem BioAssay data set” (2004).
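Test compounds were applied to cells in 96-well plates for 48 hours at 5 doses. GI50 = concentration required for 50% inhibition of growth.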 Active and inactive are the calls of the source. No stated cut-off is given here; in the data, active = GI50 up to about 1.1 µM and inactive = higher.

How the values were obtained:
Assay in all cases: NCI anticancer screen, dose series, 48 h
786-0 = tested on: 786-0
A498 = tested on: A498
A549 = tested on: A549
ACHN = tested on: ACHN
CAKI-1 = tested on: CAKI-1
CCRF-CEM = tested on: CCRF-CEM
COLO 205 = tested on: COLO 205
DLD-1 = tested on: DLD-1
DMS-114 = tested on: DMS-114
DMS-273 = tested on: DMS-273
EKVX = tested on: EKVX
HCC 2998 = tested on: HCC 2998
HCT-116 = tested on: HCT-116
HL-60 = tested on: HL-60
HOP-18 = tested on: HOP-18
HOP-62 = tested on: HOP-62
HOP-92 = tested on: HOP-92
HT-29 = tested on: HT-29
IGROV-1 = tested on: IGROV-1
K562 = tested on: K562
KM-20L2 = tested on: KM-20L2
KM12 = tested on: KM12
LOX IMVI = tested on: LOX IMVI
LXFL 529 = tested on: LXFL 529
M14 = tested on: M14
M19-MEL = tested on: M19-MEL
MOLT-4 = tested on: MOLT-4
Malme-3M = tested on: Malme-3M
NCI-H226 = tested on: NCI-H226
NCI-H23 = tested on: NCI-H23
NCI-H460 = tested on: NCI-H460
NCI-H522 = tested on: NCI-H522
OVCAR-3 = tested on: OVCAR-3
OVCAR-4 = tested on: OVCAR-4
OVCAR-5 = tested on: OVCAR-5
OVCAR-8 = tested on: OVCAR-8
RPMI-8226 = tested on: RPMI-8226
RXF 393 = tested on: RXF 393
RXF 631 = tested on: RXF 631
SF-268 = tested on: SF-268
SF-295 = tested on: SF-295
SF-539 = tested on: SF-539
SK-MEL-28 = tested on: SK-MEL-28
SK-MEL-2 = tested on: SK-MEL-2
SK-MEL-5 = tested on: SK-MEL-5
SK-OV-3 = tested on: SK-OV-3
SN12C = tested on: SN12C
SNB-19 = tested on: SNB-19
SNB-75 = tested on: SNB-75
SR = tested on: SR
TK-10 = tested on: TK-10
U-251 = tested on: U-251
UACC-257 = tested on: UACC-257
UACC-62 = tested on: UACC-62
UO-31 = tested on: UO-31
HCT-15 = tested on: HCT-15
SNB-78 = tested on: SNB-78
SW-620 = tested on: SW-620
XF498 = tested on: XF498

With `CCOC(=O)C(CCCNC(=O)OC(C)(C)C)N(Cc1ccc(OC)cc1OC)C(=O)CC(=O)CP(=O)(OCC)OCC` (configuration not stated) the GI50 (786-0) was > 100 µM (inactive), the GI50 (A498) was > 100 µM (inactive) and the GI50 (A549) was > 100 µM (inactive). For the same compound, the GI50 (ACHN) was > 100 µM (inactive), the GI50 (CAKI-1) was > 100 µM (inactive) and the GI50 (CCRF-CEM) was > 100 µM (inactive). The GI50 (COLO 205) was > 100 µM (inactive), the GI50 (DLD-1) was > 100 µM (inactive) and the GI50 (DMS-114) was 21 µM (inactive). The GI50 (DMS-273) was > 100 µM (inactive), the GI50 (EKVX) was > 100 µM (inactive) and the GI50 (HCC 2998) was > 100 µM (inactive). For the same compound, the GI50 (HCT-116) was > 100 µM (inactive), the GI50 (HL-60) was 97.7 µM (inactive) and the GI50 (HOP-18) was > 100 µM (inactive). For the same compound, the GI50 (HOP-62) was > 100 µM (inactive), the GI50 (HOP-92) was 16.2 µM (inactive) and the GI50 (HT-29) was > 100 µM (inactive). For the same compound, the GI50 (IGROV-1) was > 100 µM (inactive), the GI50 (K562) was > 100 µM (inactive) and the GI50 (KM-20L2) was > 100 µM (inactive). For the same compound, the GI50 (KM12) was > 100 µM (inactive), the GI50 (LOX IMVI) was > 100 µM (inactive) and the GI50 (LXFL 529) was > 100 µM (inactive). The GI50 (M14) was > 100 µM (inactive), the GI50 (M19-MEL) was > 100 µM (inactive) and the GI50 (MOLT-4) was 56.5 µM (inactive). The GI50 (Malme-3M) was > 100 µM (inactive), the GI50 (NCI-H226) was > 100 µM (inactive) and the GI50 (NCI-H23) was > 100 µM (inactive). The GI50 (NCI-H460) was > 100 µM (inactive), the GI50 (NCI-H522) was 29 µM (inactive) and the GI50 (OVCAR-3) was > 100 µM (inactive). The GI50 (OVCAR-4) was > 100 µM (inactive), the GI50 (OVCAR-5) was > 100 µM (inactive) and the GI50 (OVCAR-8) was > 100 µM (inactive). For the same compound, the GI50 (RPMI-8226) was > 100 µM (inactive), the GI50 (RXF 393) was > 100 µM (inactive) and the GI50 (RXF 631) was > 100 µM (inactive). For the same compound, the GI50 (SF-268) was > 100 µM (inactive), the GI50 (SF-295) was > 100 µM (inactive) and the GI50 (SF-539) was > 100 µM (inactive). The GI50 (SK-MEL-28) was > 100 µM (inactive), the GI50 (SK-MEL-2) was > 100 µM (inactive) and the GI50 (SK-MEL-5) was > 100 µM (inactive). The GI50 (SK-OV-3) was > 100 µM (inactive), the GI50 (SN12C) was > 100 µM (inactive) and the GI50 (SNB-19) was > 100 µM (inactive). For the same compound, the GI50 (SNB-75) was > 100 µM (inactive), the GI50 (SR) was 42.7 µM (inactive) and the GI50 (TK-10) was > 100 µM (inactive). For the same compound, the GI50 (U-251) was > 100 µM (inactive), the GI50 (UACC-257) was > 100 µM (inactive) and the GI50 (UACC-62) was > 100 µM (inactive). For the same compound, the GI50 (UO-31) was > 100 µM (inactive).
`Cc1c(CC/C(=N\Nc2ccc([N+](=O)[O-])cc2[N+](=O)[O-])c2ccccc2)c2ccccc2n1C` was tested, and the GI50 (786-0) was > 100 µM (inactive), the GI50 (A498) was > 100 µM (inactive) and the GI50 (A549) was > 100 µM (inactive). For the same compound, the GI50 (ACHN) was > 100 µM (inactive), the GI50 (CAKI-1) was > 100 µM (inactive) and the GI50 (CCRF-CEM) was > 44 µM (inactive). For the same compound, the GI50 (COLO 205) was > 100 µM (inactive), the GI50 (DLD-1) was > 100 µM (inactive) and the GI50 (DMS-114) was > 100 µM (inactive). The GI50 (DMS-273) was > 100 µM (inactive), the GI50 (EKVX) was > 100 µM (inactive) and the GI50 (HCC 2998) was > 100 µM (inactive). For the same compound, the GI50 (HCT-116) was > 100 µM (inactive), the GI50 (HCT-15) was over 100 µM and the GI50 (HL-60) was > 50 µM (inactive). For the same compound, the GI50 (HOP-62) was > 100 µM (inactive), the GI50 (HOP-92) was 97.7 µM (inactive) and the GI50 (HT-29) was > 100 µM (inactive). The GI50 (IGROV-1) was > 100 µM (inactive), the GI50 (K562) was 27.4 µM (inactive) and the GI50 (KM-20L2) was > 100 µM (inactive). For the same compound, the GI50 (KM12) was > 100 µM (inactive), the GI50 (LOX IMVI) was > 100 µM (inactive) and the GI50 (LXFL 529) was > 100 µM (inactive). For the same compound, the GI50 (M14) was > 100 µM (inactive), the GI50 (M19-MEL) was > 100 µM (inactive) and the GI50 (MOLT-4) was > 43.2 µM (inactive). For the same compound, the GI50 (Malme-3M) was > 100 µM (inactive), the GI50 (NCI-H226) was > 100 µM (inactive) and the GI50 (NCI-H23) was > 100 µM (inactive). The GI50 (NCI-H460) was > 100 µM (inactive), the GI50 (NCI-H522) was > 100 µM (inactive) and the GI50 (OVCAR-3) was > 100 µM (inactive). The GI50 (OVCAR-4) was > 100 µM (inactive), the GI50 (OVCAR-5) was > 100 µM (inactive) and the GI50 (OVCAR-8) was > 100 µM (inactive). For the same compound, the GI50 (RPMI-8226) was 20.7 µM (inactive), the GI50 (RXF 393) was > 46.1 µM (inactive) and the GI50 (RXF 631) was > 100 µM (inactive). The GI50 (SF-268) was > 100 µM (inactive), the GI50 (SF-295) was > 100 µM (inactive) and the GI50 (SF-539) was > 100 µM (inactive). The GI50 (SK-MEL-28) was > 100 µM (inactive), the GI50 (SK-MEL-2) was > 100 µM (inactive) and the GI50 (SK-MEL-5) was > 100 µM (inactive). For the same compound, the GI50 (SK-OV-3) was > 100 µM (inactive), the GI50 (SN12C) was > 100 µM (inactive) and the GI50 (SNB-19) was > 94.4 µM (inactive). For the same compound, the GI50 (SNB-75) was > 56.1 µM (inactive), the GI50 (SNB-78) was > 100 µM (inactive) and the GI50 (SW-620) was > 100 µM (inactive). For the same compound, the GI50 (TK-10) was > 100 µM (inactive), the GI50 (U-251) was > 100 µM (inactive) and the GI50 (UACC-257) was > 100 µM (inactive). For the same compound, the GI50 (UACC-62) was > 100 µM (inactive), the GI50 (UO-31) was > 86.9 µM (inactive) and the GI50 (XF498) was > 100 µM (inactive).
